Test results taken from PubChem BioAssay (NCI).
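Cells were grown in 96-well plates and exposed to each compound for 48 hours at five concentrations; endpoints were interpolated linearly between bracketing concentrations, or set to the highest concentration if not reached. GI50 marks 50% less growth. TGI: concentration producing complete growth inhibition.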

How the values were obtained:
Test in all cases: growth of human tumour cells (NCI), 48 h
SW-620 colon = system: SW-620 colon
MDA-MB-231 breast = system: MDA-MB-231 breast
A549 NSCLC = system: A549 NSCLC
OVCAR-8 ovarian = system: OVCAR-8 ovarian
KM12 colon = system: KM12 colon
K-562 leukemia = system: K-562 leukemia
HOP-62 NSCLC = system: HOP-62 NSCLC
OVCAR-4 ovarian = system: OVCAR-4 ovarian

Row | Compound | TGI (SW-620 colon) [µM] | TGI (MDA-MB-231 breast) [µM] | TGI (A549 NSCLC) [µM] | TGI (OVCAR-8 ovarian) [µM] | TGI (KM12 colon) [µM] | TGI (K-562 leukemia) [µM] | TGI (HOP-62 NSCLC) [µM] | TGI (OVCAR-4 ovarian) [µM] | GI50 (SW-620 colon) [µM] | GI50 (MDA-MB-231 breast) [µM] | GI50 (A549 NSCLC) [µM] | GI50 (OVCAR-8 ovarian) [µM] | GI50 (K-562 leukemia) [µM] | GI50 (HOP-62 NSCLC) [µM] | GI50 (OVCAR-4 ovarian) [µM]
1 | Cc1ccc(C)c(COCCOCn2cc(N3CCOCC3)c(=O)[nH]c2=O)c1 | > 100 | > 100 | > 100 | > 100 | > 100 | > 100 |  |  |  |  |  |  |  |  | 
2 | O=C(C(=C(I)I)c1ccccc1)c1ccccc1 | > 100 |  | > 100 | > 100 |  | 21.4 | 37.7 | > 100 |  |  |  |  |  |  | 
3 | O=C1c2cc3c(cc2CC12Cc1ccc4c(c1C2=O)CCC4)CCC3 (configuration not stated) | > 100 | > 100 | > 100 | > 100 |  | > 100 | > 100 | > 100 |  |  |  |  |  |  | 
4 | CC[C@H](NC(=O)OC(C)(C)C)C(=O)NCP(=O)(OCc1ccc([N+](=O)[O-])cc1)OCc1ccc([N+](=O)[O-])cc1 | > 100 | > 100 | > 100 | > 100 | > 100 |  | > 100 | > 100 |  |  |  |  |  |  | 
5 | Cc1cc(S(=O)(=O)N=C2Nc3cccc4cccc(c34)N2)c(S)cc1Cl | > 100 | > 100 | > 100 | > 100 | > 100 | > 100 |  | > 100 |  |  |  |  |  |  | 
6 | O=C(c1ccco1)N(C(=O)N1CCC(c2ccccc2)CC1)c1ccccc1 | > 100 | > 100 |  | > 100 | 85 | > 100 |  |  |  |  |  |  |  |  | 
7 | CC1(C)N=C(N)N=C(N)N1c1cccc(Cl)c1 | > 100 | > 100 | > 100 |  | > 100 | > 100 | > 100 | > 100 |  |  |  |  |  |  | 
8 | CC(=N/NC(=S)N(C)C)/C(=N\NC(=S)N(C)C)c1ccccc1 | 3.97 | > 23.8 | 8.56 |  | 4.44 | > 100 | 5.33 | 3.74 |  |  |  |  |  |  | 
9 | NCCCCNCCCN1CCOC1=O | > 100 | > 100 | > 100 | > 100 | > 100 | > 100 | > 100 |  |  |  |  |  |  |  | 
10 | CO[P@@]1(=O)O[C@@H](c2ccccc2)[C@H](O)[C@]1(O)c1ccccc1 | > 100 | > 100 | > 100 | > 100 | > 100 | > 100 |  | > 100 |  |  |  |  |  |  | 
11 | CSc1ncc2c(n1)-c1ccccc1OC2NC1CC1 (configuration not stated) | > 100 | > 100 | > 100 | > 100 | > 100 | > 100 |  | > 100 |  |  |  |  |  |  | 
12 | Oc1ccccc1/C=N/N1C(=S)N(C23CC4CC(CC(C4)C2)C3)C(=Nc2ccccc2)C1=Nc1ccccc1 | > 100 | > 100 | > 100 | > 100 | > 100 | > 100 | > 100 |  |  |  |  |  |  |  | 
13 | CCOC(=O)c1c(SCc2cc(=O)[nH]c(=O)[nH]2)n(-c2ccccc2)c(=S)n(-c2ccccc2)c1=O | > 100 | > 100 | > 100 | > 100 | > 100 | > 100 | > 100 |  |  |  |  |  |  |  | 
14 | Nc1c(N2CCOCC2)c(=O)nc2[nH]/c(=C\c3ccccc3O)c(=O)n12 | > 100 | > 100 | > 100 | > 100 | > 100 | > 100 |  | > 100 |  |  |  |  |  |  | 
15 | CCN(CC)C(=S)N/N=C(/c1ccccc1)c1ccccn1 | > 49.4 |  | > 39.7 | 11.3 | 19.6 | > 100 | 13.6 | 23.8 |  |  |  |  |  |  | 
16 | N#Cc1c(-c2ccc([N+](=O)[O-])cc2)c(C#N)c(=O)n(NS(=O)(=O)c2ccccc2)c1O | > 100 | > 100 | > 100 | > 100 |  | > 100 | > 100 | > 100 |  |  |  |  |  |  | 
17 | CCCCNC(=O)Cn1c2ccc(Br)cc2c2nc3ccccc3nc21 | > 100 | > 100 | > 100 | > 100 | > 100 | > 100 | > 100 |  |  |  |  |  |  |  | 
18 | COc1cc2c(c(OC)c1)[C@H](C)N(Cc1ccccc1)C(C)C2 (some centres not stated) | > 100 | > 100 | > 100 | > 100 | > 100 | > 100 | > 100 |  |  |  |  |  |  |  | 
19 | CN1C2=Nc3n(c4ccccc4[n+]3C)CN2c2ccccc21 | > 100 | > 100 | > 100 | > 100 | 46.8 | > 100 | > 100 |  |  |  |  |  |  |  | 
20 | O=c1c2cc([N+](=O)[O-])ccc2oc2nc3n(c(=O)c12)CCCS3 | > 100 | > 100 | > 100 |  | > 100 | > 100 | > 100 | > 100 |  |  |  |  |  |  | 
21 | O=C1c2cc3c(cc2-c2c1c1ccc(Cl)cc1c(=O)n2CCCn1ccnc1)OCO3 | > 100 | > 100 | > 100 | > 100 |  | 12.6 | > 100 | > 100 | < 0.01 | 0.959 | 0.0136 | 0.0116 | 0.0229 | < 0.01 | 0.0525
22 | CC(C)(C)/C(O)=C\c1nc2cc(F)c(F)cc2[nH]c1=O | > 100 | 71.7 |  | > 100 | > 100 | > 100 | > 100 | > 100 |  |  |  |  |  |  | 
